Laboratory results: patent US3966718A, “7-β-Acylamino-ceph-3-ems and salts and esters therefor” (Beecham Group Limited, priority 1973, dated 1976)
Values after ≈ are worked out from the molar mass of the structure shown. Where a name gives a salt, the structure may show the parent alone. Read-outs that look alike come from different tables or passages of the source.

How the values were obtained:
Format in all cases: cell-based
β-Haemolytic Strep. CN10 = test: MIC on (nutrient) agar; settings: β-Haemolytic Strep. CN10, agar; read-out: minimum inhibitory concentration (MIC)
E. coli JT 1 = test: MIC on nutrient agar; settings: Escherichia coli
Staph. aureus Oxford = test: MIC on (nutrient) agar; settings: Staphylococcus aureus, read-out: minimum inhibitory concentration (MIC)
B. subtilis = test: MIC on (nutrient) agar; settings: Bacillus subtilis; B. subtilis, agar; read-out: minimum inhibitory concentration (MIC)
Shigella sonnei = test: MIC on nutrient agar; settings: read-out: minimum inhibitory concentration (MIC)
Staph. aureus Russell = test: MIC on (nutrient) agar; settings: Staphylococcus aureus; Staph. aureus Russell, agar; read-out: minimum inhibitory concentration (MIC)
Salmonella typhi = test: MIC on nutrient agar; settings: Salmonella enterica, read-out: minimum inhibitory concentration (MIC)
Klebsiella aerogenes A = test: MIC on nutrient agar; settings: read-out: minimum inhibitory concentration (MIC)
Proteus mirabilis C977 = test: MIC on nutrient agar
[1] = system: Gram-positive and Gram-negative organisms; test: antibacterial activity (general statement); settings: in words
[2] = JT1, read-out: minimum inhibitory concentration (MIC)
[3] = Proteus mirabilis C977, nutrient agar, read-out: minimum inhibitory concentration (MIC)
[4] = JT1, E. coli JT 1, nutrient agar, read-out: minimum inhibitory concentration (MIC)
[5] = Klebsiella aerogenes A, nutrient agar

How did the MIC (β-Haemolytic Strep. CN10) turn out when `NC(CC(=O)N[C@@H]1C(=O)N2C(C(=O)O)=C(Cc3cccnc3)CS[C@H]12)C1CC=CCC1` (mixture of isomers) [Example 18, 7β-(DL-3-[cyclohex-3-ene]-3-aminopropionamido)-3(3-pyridylmethyl)-3-cephem-4-carboxylic acid di-trifluoroacetic acid salt] was run?
The MIC was 0.5 µg/mL.

What about the MIC (E. coli JT 1; [2]) of the same compound?
Its MIC is 125 µg/mL.

What about the MIC (Staph. aureus Oxford) of the same compound?
The MIC was 0.5 µg/mL.

What about the MIC (B. subtilis) of the same compound?
Its MIC is 1.25 µg/mL.

And the MIC (Shigella sonnei)?
Its MIC is 125 µg/mL.

And the MIC (Staph. aureus Russell)?
Its MIC is 1.25 µg/mL.

And the MIC (Salmonella typhi)?
The MIC was 125 µg/mL.

What about the MIC (Klebsiella aerogenes A; Klebsiella aerogenes) of the same compound?
Its MIC is 125 µg/mL.

What about the MIC (Proteus mirabilis C977; [3]) of the same compound?
Its MIC is 250 µg/mL.

Which results are given for `NC(C(=O)N[C@@H]1C(=O)N2C(C(=O)O)=C(Cc3cccnc3)CS[C@H]12)c1cccs1` (stereo partly drawn) [Example 15, 7-β-[(dl)-α-Amino-2-thienylacetamido]-3-(3-pyridylmethyl)-3-cephem-4-carboxylic acid Di-trifluoroacetic acid salt]?
MIC (β-Haemolytic Strep. CN10): 0.5 µg/mL; MIC (E. coli JT 1; [4]): 12.5 µg/mL; MIC (Staph. aureus Oxford): 0.5 µg/mL; MIC (B. subtilis): 1.25 µg/mL; MIC (Shigella sonnei): 5 µg/mL; MIC (Staph. aureus Russell): 5 µg/mL; MIC (Salmonella typhi): 2.5 µg/mL; MIC (Klebsiella aerogenes A; [5]): 5 µg/mL; MIC (Proteus mirabilis C977; [3]): 12.5 µg/mL

Which results are given for `NC(C(=O)N[C@@H]1C(=O)N2C(C(=O)O)=C(Cc3cccnc3)CS[C@H]12)C1CC1` (mixture of isomers) [Example 19, 7β-(DL-α-aminocyclopropylacetamido)-3(3-pyridylmethyl)-3-cephem-4-carboxylic acid di-trifluoroacetic acid salt]?
MIC (β-Haemolytic Strep. CN10): 2.5 µg/mL; MIC (E. coli JT 1; [4]): 500 µg/mL; MIC (Staph. aureus Oxford): 5 µg/mL; MIC (B. subtilis): 12.5 µg/mL; MIC (Shigella sonnei): 250 µg/mL; MIC (Staph. aureus Russell): 12.5 µg/mL; MIC (Salmonella typhi): 250 µg/mL; MIC (Klebsiella aerogenes A; [5]): 250 µg/mL; MIC (Proteus mirabilis C977; [3]): 500 µg/mL

How did the antibacterial activity [1] turn out when `O=C(Cc1cccs1)N[C@@H]1C(=O)N2C(C(=O)O)=C(Cc3cccnc3)CS[C@H]12` [Example 2, 3(3-pyridylmethyl)-7β-(2-thienylacetamido)-3-cephem-4-carboxylic acid] was run?
Its antibacterial activity is “essentially similar to the trifluoroacetate salt described in Example 1”.

What does the source list for `O=C(Cc1ccncc1)N[C@@H]1C(=O)N2C(C(=O)O)=C(Cc3cccnc3)CS[C@H]12` [Example 17, 7β(4-pyridylacetamido)-3(3-pyridylmethyl)-3-cephem-4-carboxylic acid di-trifluoroacetic acid salt]?
MIC (β-Haemolytic Strep. CN10): 0.12 µg/mL; MIC (E. coli JT 1; [4]): 25 µg/mL; MIC (Staph. aureus Oxford): 0.12 µg/mL; MIC (B. subtilis): 0.25 µg/mL; MIC (Shigella sonnei): 25 µg/mL; MIC (Staph. aureus Russell): 25 µg/mL; MIC (Salmonella typhi): 10 µg/mL; MIC (Klebsiella aerogenes A; [5]): 10 µg/mL; MIC (Proteus mirabilis C977; [3]): 10 µg/mL

Which results are given for `CN(C(=O)C=Cc1ccccc1)C(=O)N[C@@H](C(=O)N[C@@H]1C(=O)N2C(C(=O)O)=C(Cc3cccnc3)CS[C@H]12)c1ccccc1` [Example 20]?
MIC (β-Haemolytic Strep. CN10): 0.25 µg/mL (≈ 0.409 µM); MIC (E. coli JT 1; [2]): 125 µg/mL (≈ 204 µM); MIC (Staph. aureus Oxford): 4 µg/mL (≈ 6.54 µM); MIC (B. subtilis): 32 µg/mL (≈ 52.3 µM); MIC (Shigella sonnei): 63 µg/mL (≈ 103 µM); MIC (Staph. aureus Russell): 63 µg/mL (≈ 103 µM); MIC (Salmonella typhi): > 125 µg/mL; MIC (Klebsiella aerogenes A; [5]): 63 µg/mL (≈ 103 µM); MIC (Proteus mirabilis C977; Proteus mirabilis, C977, read-out: minimum inhibitory concentration (MIC)): > 125 µg/mL
